Test [1] relates to Pseudomonas aeruginosa. The test can be described thus: Antibacterial activity against Pseudomonas aeruginosa. It is filed as functional, organism-based.
Test [2] relates to Escherichia coli. In words: Antibacterial activity against Escherichia coli. The test is classed as functional, organism-based.
Test [3] relates to Staphylococcus aureus. The test can be described thus: Antibacterial activity against Staphylococcus aureus. The test is classed as functional, organism-based.
Test [4] has as its system Staphylococcus aureus. In words: Antibacterial activity against Staphylococcus aureus by two-fold serial dilution technique. The test is classed as functional.
Test [5] deals with Bacillus subtilis. The test can be described thus: Antibacterial activity against Bacillus subtilis by two-fold serial dilution technique. It is filed as functional.
The test system of test [6] is Pseudomonas aeruginosa. The test can be described thus: Antibacterial activity against Pseudomonas aeruginosa by two-fold serial dilution technique. It is filed as functional.
Test [7] deals with Escherichia coli. In words: Antibacterial activity against Escherichia coli by two-fold serial dilution technique. The test is classed as functional.
In test [8] the test system is Salmonella typhi. In words: Antibacterial activity against Salmonella typhi. The test is classed as functional, Salmonella enterica subsp. enterica serovar Typhi. The settings on record: Salmonella enterica.
In test [9] the test system is Pseudomonas aeruginosa. The test can be described thus: Antibacterial activity against Pseudomonas aeruginosa after 24 hrs by paper disc diffusion technique. It is filed as functional. The settings on record: Pseudomonas aeruginosa, 24 h; read-out: MIC. In general terms: A growth-free zone around the sample is the usual read-out of agar diffusion tests.
In test [10] the test system is Klebsiella pneumoniae. In words: Antibacterial activity against Klebsiella pneumoniae after 24 hrs by paper disc diffusion technique. Particulars: Klebsiella pneumoniae, 24 h; read-out: MIC. It is filed as functional.
Test [11] relates to Escherichia coli. In words: Antibacterial activity against Escherichia coli after 24 hrs by paper disc diffusion technique. It is filed as functional. Particulars: Escherichia coli, 24 h; read-out: MIC.
The test system of test [12] is Micrococcus luteus. In words: Antibacterial activity against Micrococcus luteus after 24 hrs by paper disc diffusion technique. The test is classed as functional. Particulars: Micrococcus luteus, 24 h; read-out: MIC.
Test [13] concerns Staphylococcus epidermidis. In words: Antibacterial activity against Staphylococcus epidermidis after 24 hrs by paper disc diffusion technique. It is filed as functional. The settings on record: Staphylococcus epidermidis, 24 h; read-out: MIC.
Test [14] concerns Staphylococcus aureus. In words: Antibacterial activity against Staphylococcus aureus after 24 hrs by paper disc diffusion technique. The test is classed as functional. The settings on record: Staphylococcus aureus, 24 h; read-out: MIC.

≈ marks a conversion by molar mass, not a printed value.

For `Cc1c(C)c2c(c(C)c1O)CCC(C)(C(=O)N/N=C1\C(=O)Nc3ccc(Br)cc31)O2` (stereo not given), the MIC (commonly the smallest concentration in the dilution series that meets the test's criterion for growth inhibition) in test [1] was in the range of 12.5 to 100 µg/mL; in test [2], 12.5 to 100 µg/mL (≈ 26.5 to 212 µM); in test [3], 12.5 to 100 µg/mL (≈ 26.5 to 212 µM).

On to `O=C(N/N=C1\C(=O)N(Cc2ccccc2)c2ccccc21)N/N=C1\C(=O)N(Cc2ccccc2)c2ccccc21`, for which the MIC in test [4], in [5], in test [6] and in test [7] was 6.25 to 100 µg/mL (≈ 11.8 to 189 µM) in each case.

With `Cc1c(C)c2c(c(C)c1O)CCC(C)(C(=O)N/N=C1\C(=O)N(C)c3ccccc31)O2` (stereo not given), the results for the MIC in test [1], in test [2] and in [3] were 12.5 to 100 µg/mL, 12.5 to 100 µg/mL (≈ 30.7 to 245 µM) and 12.5 to 100 µg/mL (≈ 30.7 to 245 µM), respectively.

With `O=C1Nc2ccccc2/C1=N/NC(=O)c1cccc(Br)c1`, the IC50 in [1], in [2] and in test [3] was 30 to 50 µM throughout.

As to `Cc1c(C)c2c(c(C)c1O)CCC(C)(C(=O)N/N=C1\C(=O)N(C)c3ccc(Cl)cc31)O2` (stereo not given), the values for the MIC in test [1], in test [2] and in test [3] were 12.5 to 100 µg/mL, 12.5 to 100 µg/mL (≈ 28.3 to 226 µM) and 12.5 to 100 µg/mL (≈ 28.3 to 226 µM), respectively.

For the compound `Cc1ccc(C)c(/N=C2\C(=O)N(CC(=O)Nc3ccc(C)c(C)c3)c3ccccc32)c1`, the results for the MIC in test [1] and in test [8] were 0.003 to 0.324 µM and 0.003 to 0.324 µM (≈ 0.00123 to 0.133 µg/mL), respectively.

Regarding `Cc1c(C)c2c(c(C)c1O)CCC(C)(C(=O)N/N=C1\C(=O)Nc3ccc(F)cc31)O2` (stereo not given), the MIC in test [1] was in the range of 12.5 to 100 µg/mL; in test [2], 12.5 to 100 µg/mL (≈ 30.4 to 243 µM); in test [3] it was 12.5 to 100 µg/mL (≈ 30.4 to 243 µM).

On to `O=C(O)c1cn(C2CC2)c2cc(N3CCN(CN4C(=O)/C(=N/c5ccc(/N=C/c6ccccc6O)cc5)c5cc(F)ccc54)CC3)c(F)cc2c1=O`, for which the MIC in test [9], in [10], in test [11], in test [12], in test [13] and in test [14] was 7.81 to 125 µg/mL (≈ 11.1 to 178 µM) each time.

Consider `COc1cc(/C=N/c2ccc(/N=C3/C(=O)N(CN4CCN(c5cc6c(cc5F)c(=O)c(C(=O)O)cn6C5CC5)CC4)c4ccc(F)cc43)cc2)cc(OC)c1OC`, for which the MIC in [9], in [10], in test [11], in test [12], in [13] and in test [14] was 7.81 to 125 µg/mL (≈ 10.1 to 161 µM) each time.

Consider `Cc1ccccc1NC(=O)CN1C(=O)/C(=N\c2ccccc2)c2ccccc21`, for which the MIC in test [1] is 0.003 to 0.324 µM; in test [8], 0.003 to 0.324 µM (≈ 0.00111 to 0.12 µg/mL).

With `Cc1c(C)c2c(c(C)c1O)CCC(C)(C(=O)N/N=C1\C(=O)Nc3cc(Cl)ccc31)O2` (stereo not given), the MIC in test [1] lay within 12.5 to 100 µg/mL; in test [2], 12.5 to 100 µg/mL (≈ 29.2 to 234 µM); in [3], 12.5 to 100 µg/mL (≈ 29.2 to 234 µM).

Regarding `Cc1ccc(NC(=O)CN2C(=O)/C(=N\c3ccccc3)c3ccccc32)cc1`, the MIC in [1] was in the range of 0.003 to 0.324 µM; in [8] it was 0.003 to 0.324 µM (≈ 0.00111 to 0.12 µg/mL).

For the compound `Cc1ccc(NC(=O)CN2C(=O)/C(=N\c3cc(C)ccc3C)c3ccccc32)cc1`, the MIC in [1] lay in the range of 0.003 to 0.324 µM; in test [8], 0.003 to 0.324 µM (≈ 0.00119 to 0.129 µg/mL).

As for `O=C(O)c1cn(C2CC2)c2cc(N3CCN(CN4C(=O)/C(=N/c5ccc(/N=C/c6ccc([N+](=O)[O-])cc6)cc5)c5cc(F)ccc54)CC3)c(F)cc2c1=O`, the MIC in test [9], in test [10], in test [11], in [12], in test [13] and in [14] was 7.81 to 125 µg/mL (≈ 10.7 to 171 µM) each time.

Turning to `CC[C@H]1OC(=O)[C@H](C)[C@@H](O[C@H]2C[C@@](C)(OC)[C@@H](O)[C@H](C)O2)[C@H](C)[C@@H](O[C@@H]2O[C@H](C)C[C@H](N(C)C)[C@H]2O)[C@](C)(O)C[C@@H](C)CN(C)[C@H](C)[C@@H](O)[C@]1(C)O` [AZITHROMYCIN], the MIC is 6.25 to 12.5 µg/mL in [1], 6.25 to 12.5 µg/mL (≈ 8.34 to 16.7 µM) in test [2] and 6.25 to 12.5 µg/mL (≈ 8.34 to 16.7 µM) in [3].

In the case of `COc1ccc(NC(=O)CN2C(=O)/C(=N\c3cc(C)ccc3C)c3ccccc32)cc1`, the figures for the MIC in test [1] and in test [8] were 0.003 to 0.324 µM and 0.003 to 0.324 µM (≈ 0.00124 to 0.134 µg/mL), respectively.

With `COc1ccc(/C=N/c2ccc(/N=C3/C(=O)N(CN4CCN(c5cc6c(cc5F)c(=O)c(C(=O)O)cn6C5CC5)CC4)c4ccc(F)cc43)cc2)cc1`, the MIC in test [9], in [10], in test [11], in test [12], in test [13] and in test [14] was 7.81 to 125 µg/mL (≈ 10.9 to 174 µM) in each case.

`O=C(O)c1cn(C2CC2)c2cc(N3CCN(CN4C(=O)/C(=N/c5ccc(/N=C/c6ccc(Cl)cc6)cc5)c5cc(F)ccc54)CC3)c(F)cc2c1=O`: the MIC in test [9], in [10], in test [11], in [12], in test [13] and in test [14] was 7.81 to 125 µg/mL (≈ 10.8 to 173 µM) in each case.

For the origin of these results see ChEMBL document CHEMBL4613208, “Isatin derivatives and their anti-bacterial activities” (Eur J Med Chem, 2019).
